Key:
HEp-2 [1] = assay: Compound was evaluated for cytotoxicity against H.Ep.-2 cells, and concentration required to inhibit the growth of treated cells to 50% of untreated control.; type: functional, cell-based; conditions: Homo sapiens
L1210 (1565) [2] = assay: (§1) Compound was evaluated for cytotoxicity against L-1210 (AK-) cells, and concentration required to inhibit the growth of treated cells to 50% of untreated control.; type: functional, cell-based; conditions: Mus musculus
L1210 (1565) [3] = assay: Compound was evaluated for cytotoxicity against L-1210 cells, and concentration required to inhibit the growth of treated cells to 50% of untreated control.; type: functional, cell-based; conditions: Mus musculus
[4] = tested on: S-adenosyl-L-homocysteinase (Mus musculus); assay: Inhibition of S-adenosyl-L-homocysteinase from L-1210 cells
L1210 (1565) [5] = assay: as §1; type: functional, cell-based; conditions: Mus musculus; remark: listed apart in the source
HEp-2 [6] = assay: Compound was evaluated for cytotoxicity against H.Ep.-2 (AK-) cells and concentration required to inhibit the growth of treated cells to 50% of untreated control; type: functional, cell-based; conditions: Homo sapiens
HEp-2 [7] = assay: Compound was evaluated for cytotoxicity against H.Ep.-2 cells and concentration required to inhibit the growth of treated cells to 50% of untreated control was reported; type: functional, cell-based; conditions: Homo sapiens

## Nc1ncnc2c1ccn2[C@@H]1C[C@H](CO)[C@H](O)C1O (stereo not given in full)
HEp-2 [1]
  IC50: 1400 nM
L1210 (1565) [2]
  IC50: > 40000 nM
L1210 (1565) [3]
  IC50: 4 µM
[4]
  Ki: 44 µM

## Nc1nccc2c1ncn2[C@@H]1C[C@H](CO)[C@H](O)C1O (stereo not given in full)
HEp-2 [1]
  IC50: 600 nM
L1210 (1565) [2]
  IC50: 1000 nM
L1210 (1565) [5]
  IC50: 1000 nM
L1210 (1565) [3]
  IC50: 4 µM

## Nc1ncnc2c1ncn2[C@@H]1O[C@H](CO)[C@@H](O)[C@H]1O [ADENOSINE]
HEp-2 [6]
  IC50: 20 µM
HEp-2 [1]
  IC50: 700 nM

## Nc1[nH]ccc2ncnc1-2
HEp-2 [7]
  IC50: 7 µM

## Nc1nccc2c1ncn2[C@@H]1O[C@H](CO)[C@@H](O)[C@H]1O
HEp-2 [1]
  IC50: 20000 nM

## Nc1ncnc2c1ccn2[C@@H]1O[C@H](CO)[C@@H](O)[C@H]1O [TUBERCIDIN]
HEp-2 [6]
  IC50: > 3 µM
HEp-2 [1]
  IC50: 2 nM

## Nc1ncnc2[nH]ccc12
HEp-2 [1]
  IC50: > 70000 nM

Source: ChEMBL document CHEMBL1122762, “(+/-)-3-(4-Amino-1H-pyrrolo[2,3-d]pyrimidin-1-yl)-5-(hydroxymethyl)- (1 alpha,2 alpha,3 beta,5 beta)-1,2-cyclopentanediol, the carbocyclic analogue of tubercidin” (J Med Chem, 1984)
